For data set [1], the system named is healthy human subject. Put plainly: Stimulated saliva flow, case study of tolterodine and pilocarpine (Example 6). In kind it is in vivo. The settings on record: 2 mg tolterodine tartrate alone. As to the method:
In this study, the effect of tolterodine, pilocarpine, the combination of the two, and placebo was measured in separate, yet identical, studies in a single individual.
Effect of Tolterodine—A healthy human subject was given a 2 mg dose of tolterodine tartrate and the amount of salivation was measured with time over an 8 hour period. As shown in FIGS. 6 and 7 (♦, diamond), the amount of saliva flow collected over 2 minute periods decreased after dosing and the saliva flow remained low after 3 hrs.
Effect of Dose Ratio Between Tolterodine and Pilocarpine—In this experiment the results of two separate dose ratios between tolterodine and pilocarpine were compared with the results of placebo and administration of tolterodine alone. In one experiment, 2 mg of tolterodine was administered to a healthy individual and saliva flow was measured for 8 hours. Using a similar protocol, 2 mg of tolterodine was administered to a healthy individual at t=0, followed by 5 mg of pilocarpine at t=30 min. Similarly, 2 mg of tolterodine was administered to a healthy individual at t=0, followed by 10 mg of pilocarpine at t=30 min. Finally, the results were compared with the administration of placebo (FIG. 6 (●, closed circle)). […] Therefore, an effective dose ratio for the combination […] and pilocarpine is when 2 mg of tolterodine is combined with 10 mg of pilocarpine.
Effect of Combination of Tolterodine and Pilocarpine—In a separate human study, the combination of tolterodine and pilocarpine was administered to a healthy human subject. To the subject 2 mg of tolterodine followed by 10 mg of pilocarpine were administered with various delays in the administration of pilocarpine. Saliva flow was measured as before.
In one study, 10 mg of pilocarpine was administered to the subject 15 minutes after the administration of 2 mg of tolterodine. Saliva flow was measured as before. In another study, 10 mg of pilocarpine was administered to the subject 22 minutes after the administration of 2 mg of tolterodine. Saliva flow was measured as before. […] Saliva flow was measured as before.

The test system of data set [2] is healthy human subject. Description: Stimulated salivary flow, case study of oxybutynin and cevimeline alone and combined (Example 5). It is filed as in vivo. The settings on record: for Amount of Saliva Collecetd over 2 min: cevimeline 30 mg and/or oxybutynin 5 mg oral, single subject, in g; for amount of saliva flow collected over 2 minute periods after dosing (in words) / time at which saliva flow reached the pre-dose level: single agent alone (oxybutynin HCl 5 mg; cevimeline 30 mg). As to the method:
In this study, the effect of oxybutynin, cevimeline, the combination of the two, and placebo was measured in separate studies in a single individual.
Effect of Oxybutynin—A healthy human subject was given a 5 mg dose of oxybutynin HCl and the amount of salivation was measured with time over an 8 hour period. As shown in FIG. 5 (●, circle), the amount of saliva flow collected over 2 minutes periods decreased after dosing and the saliva flow remained low after 3 hrs. The amount of saliva flow started increasing after 3 hrs and continued increasing reaching the pre-dose level after 8 hrs post-dosing. The data generated in this study is consistent with the literature data.
Effect of Cevimeline—In a separate human study the effect of administering 30 mg of cevimeline was evaluated in a healthy human subject to ensure that cevimeline indeed increases salivary gland flow. […] The decrease in saliva flow continued until it reached about the normal saliva flow and pre-dosing level after about 6 hrs.
Effect of Combination of Oxybutynin and Cevimeline—In a separate human study, the combination of oxybutynin and cevimeline was administered to a healthy human subject. To the subject 5 mg of oxybutynin followed simultaneously by 30 mg of cevimeline, with no time delay, was administered. Saliva flow was measured as before. Results are shown in FIG. 5 (▪, square), where the combination is referred to as THVD-102.

Data set [3] relates to healthy human subject. Description: Stimulated saliva flow, case study of oxybutynin and pilocarpine alone and combined (Example 4). It is filed as in vivo. The settings on record: FIG. 1; for amount of saliva flow collected over 2 minute periods after dosing (in words): single agent alone (oxybutynin HCl 5 mg; pilocarpine HCl), single healthy subject, 8 hour period; for time at which saliva flow reached the pre-dose level: single agent alone, post-dosing. Here is the method: (§1) The following measurements are made just prior to and at frequent intervals for up to 6 hours post dose: • Salivary flow is determined by chewing Parafilm for 2 minutes • Dry mouth is determined by VAS • Urine volume/void and frequency over 6 hours post dose is measured • Blood samples are taken for pharmacokinetics at pre-dose, and at 0.5, 1, 2, 3, 4, and 6 hours post dose • Food and water intake are standardized over the 6 hour period
In this study, the effect of oxybutynin, pilocarpine, the combination of the two, and placebo was measured in six separate, yet identical, studies in a single individual.
Effect of Oxybutynin—A healthy human subject was given a 5 mg dose of oxybutynin HCl and the amount of salivation was measured with time over an 8 hour period. […]

Data set [4] can be described thus: Plasma concentration of oxybutynin after 5 mg oxybutynin alone or followed by 5 mg pilocarpine, four way crossover clinical trial. It is filed as in vivo, human. The settings on record: 5 mg pilocarpine 30 min after 5 mg oxybutynin. Here is the method:
as §1
The study is a double blind, randomized, placebo-controlled, with 4 sequences (4 doses over 4 weeks) with the drugs being administered orally as a single dose. There is a One-week washout between study days. […]
Plasma Concentration of Oxybutynin—In a separate study, the plasma concentration of oxybutynin was measured in two groups of subjects: one group received 5 mg of oxybutynin alone and another group received 5 mg of oxybutynin followed by 5 mg pilocarpine after 30 min. The plasma concentrations were measured before the administration of oxybutynin and in hours 1, 2, 3, 4, and 6 after its administration. […]

Where [5] appears, read: Time −0.17 hr (pre-dose), text gives saliva flow in g/2 min.

Take `Cc1ccc(O)c([C@H](CCN(C(C)C)C(C)C)c2ccccc2)c1` (stereo in doubt) [tolterodine, (R)-2-[3-[bis(1-methylethyl-amino]-1-phenylpropyl]-4-methylphenol [R—(R*,R*)]-2,3-dihydroxybutanedionic acid]: the “time after which saliva flow started increasing again” value in the data set on healthy human subject [1] is “about 4 hrs”. For the same compound, in the data set with healthy human subject [1] (8 hour period, FIGS. 6 and 7), the “amount of saliva flow collected over 2 minute periods after dosing (in words)” value is given as “decreased”. In addition, the “time at which saliva flow reached the pre-dose levels” value in the data set with healthy human subject [1] (not completely reached at end of observation) was greater than 8 h.
Turning to `CC1OC2(CS1)CN1CCC2CC1` (stereo not shown) [Cevimeline, cevimeline], the “time of peak saliva flow” value in the data set with healthy human subject [2] (30 mg cevimeline alone, FIG. 5) was “close to two hours”. The “Amount of Saliva Collecetd over 2 min” value stood at 2.6273 in the data set with healthy human subject [2] (Time 0 hr); 2.7791 in the data set with healthy human subject [2] (Time 0.5 hr); 4.1213 with healthy human subject [2] (Time 1 hr); 4.6029 in the data set with healthy human subject [2] (Time 1.5 hr); 3.7314 with healthy human subject [2] (Time 2 hr); 3.7641 in the data set with healthy human subject [2] (Time 2.5 hr). Further, the “Amount of Saliva Collecetd over 2 min” value worked out at 3.5888 in the data set with healthy human subject [2] (Time 3 hr); 3.9316 in the data set with healthy human subject [2] (Time 3.5 hr); 3.5914 in the data set with healthy human subject [2] (Time 4 hr); 2.6099 in the data set on healthy human subject [2] (Time 5 hr); 2.205 in the data set with healthy human subject [2] (Time 6 hr); 1.7973 in the data set with healthy human subject [2] (Time 8 hr). Besides, the “Amount of Saliva Collecetd over 2 min” value in the data set on healthy human subject [2] (setting [5]) was 2.4808. The “amount of saliva flow collected over 2 minute periods after dosing (in words)” value in the data set with healthy human subject [2] (FIG. 5) was “increased sharply”. The “time at which saliva flow reached the pre-dose level” value with healthy human subject [2] (FIG. 5) is recorded as “about 6 hrs”.
For the compound `CCN(CC)CC#CCOC(=O)C(O)(c1ccccc1)C1CCCCC1` (stereo not shown) [Oxybutynin, oxybutynin], the “time after which saliva flow started increasing again” value with healthy human subject [3] (5 mg oxybutynin HCl alone) is 3 h; with healthy human subject [2] (5 mg oxybutynin HCl alone, FIG. 5), 3 h. The “amount of saliva flow collected over 2 minute periods after dosing (in words)” value in the data set with healthy human subject [3] and with healthy human subject [2] (FIG. 5) was “decreased” each time. The “time at which saliva flow reached the pre-dose level” value in the data set with healthy human subject [3] and with healthy human subject [2] (FIG. 5) was 8 h in each case. For the same compound, the “Amount of Saliva Collecetd over 2 min” value is 2.4536 in the data set on healthy human subject [2] (Time 0 hr); 1.8558 with healthy human subject [2] (Time 0.5 hr); 1.2308 in the data set on healthy human subject [2] (Time 1 hr); 1.2326 in the data set with healthy human subject [2] (Time 1.5 hr); 1.3548 in the data set on healthy human subject [2] (Time 2 hr); 1.1829 with healthy human subject [2] (Time 3 hr). Also, the “Amount of Saliva Collecetd over 2 min” value with healthy human subject [2] (Time 4 hr) stood at 1.5868; in the data set with healthy human subject [2] (Time 5 hr) it was 2.1475; in the data set with healthy human subject [2] (Time 6 hr) it was 2.0096; with healthy human subject [2] (Time 8 hr) it was 2.3028; with healthy human subject [2] (setting [5]), 2.2208.
On to `CC[C@@H]1C(=O)OC[C@@H]1Cc1cncn1C` [pilocarpine], for which the “time of peak saliva flow” value in the data set with healthy human subject [3] (pilocarpine HCl alone) is “half an hour”. For the same compound, in the data set with healthy human subject [3], the “amount of saliva flow collected over 2 minute periods after dosing (in words)” value is recorded as “increased sharply” and the “time at which saliva flow reached the pre-dose level” value was “about 5 hrs”. Moreover, the “effect of pilocarpine on the plasma concentration of oxybutynin” value in data set [4] was “does not affect the plasma concentration of oxybutynin at all”.

The values above are taken from US7781472B2, “Therapy for the treatment of disease” (TheraVida, Inc., priority 2005, dated 2010).
